Our source for the residual activity values is ChEMBL document CHEMBL1681705, “Optimisation of ITK inhibitors through successive iterative design cycles” (Bioorg Med Chem Lett, 2011).

Assay [1] deals with T1, Ephrin type-A receptor 8 (Homo sapiens) (UniProt P29322).
T1 sequence (whole entry): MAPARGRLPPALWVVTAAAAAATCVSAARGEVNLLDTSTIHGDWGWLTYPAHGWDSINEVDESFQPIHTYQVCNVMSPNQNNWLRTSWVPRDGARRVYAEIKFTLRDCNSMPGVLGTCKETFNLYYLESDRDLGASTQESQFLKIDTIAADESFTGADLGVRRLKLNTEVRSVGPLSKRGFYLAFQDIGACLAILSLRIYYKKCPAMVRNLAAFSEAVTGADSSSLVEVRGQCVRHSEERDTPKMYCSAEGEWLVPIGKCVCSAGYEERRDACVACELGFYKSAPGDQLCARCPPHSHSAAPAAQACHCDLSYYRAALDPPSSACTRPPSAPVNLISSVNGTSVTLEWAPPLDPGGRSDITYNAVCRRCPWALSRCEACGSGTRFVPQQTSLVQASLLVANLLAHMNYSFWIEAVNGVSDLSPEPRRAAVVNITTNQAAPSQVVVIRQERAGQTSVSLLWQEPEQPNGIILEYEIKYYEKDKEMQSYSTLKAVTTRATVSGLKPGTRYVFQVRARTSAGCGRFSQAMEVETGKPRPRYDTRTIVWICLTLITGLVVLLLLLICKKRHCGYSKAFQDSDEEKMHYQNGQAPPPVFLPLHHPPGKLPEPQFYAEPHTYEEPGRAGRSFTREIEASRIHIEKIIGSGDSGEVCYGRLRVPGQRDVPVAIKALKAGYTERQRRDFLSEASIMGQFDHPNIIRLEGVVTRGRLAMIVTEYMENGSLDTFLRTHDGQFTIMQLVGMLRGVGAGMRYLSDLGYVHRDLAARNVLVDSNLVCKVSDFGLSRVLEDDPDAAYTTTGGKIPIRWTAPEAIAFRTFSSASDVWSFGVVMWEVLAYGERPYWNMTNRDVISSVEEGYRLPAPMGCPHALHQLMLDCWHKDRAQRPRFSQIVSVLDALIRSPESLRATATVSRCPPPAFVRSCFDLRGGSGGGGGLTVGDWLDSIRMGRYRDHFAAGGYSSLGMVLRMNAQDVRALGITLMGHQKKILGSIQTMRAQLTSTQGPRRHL
The assay can be described thus: Inhibition of EphA8 at 1 uM; values are per cent of control.

The target of assay [2] is T2, Serine/threonine-protein kinase Chk1 (Homo sapiens) (UniProt O14757).
T2 sequence (whole entry): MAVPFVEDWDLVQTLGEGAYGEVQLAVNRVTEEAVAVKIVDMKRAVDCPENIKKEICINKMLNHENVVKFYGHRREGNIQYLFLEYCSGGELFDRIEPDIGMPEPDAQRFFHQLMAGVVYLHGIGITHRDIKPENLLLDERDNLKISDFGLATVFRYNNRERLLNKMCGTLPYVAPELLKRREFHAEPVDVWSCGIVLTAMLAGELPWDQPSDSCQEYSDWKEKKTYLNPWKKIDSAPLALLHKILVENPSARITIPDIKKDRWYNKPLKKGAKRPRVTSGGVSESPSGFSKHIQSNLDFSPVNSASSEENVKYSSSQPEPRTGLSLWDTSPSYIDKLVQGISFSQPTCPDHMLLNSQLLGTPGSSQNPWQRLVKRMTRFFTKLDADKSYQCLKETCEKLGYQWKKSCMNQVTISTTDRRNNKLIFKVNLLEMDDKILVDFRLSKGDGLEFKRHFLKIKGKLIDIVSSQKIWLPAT
The assay can be described thus: Inhibition of CHK1 at 0.1 uM; values are per cent of control.

For assay [3], the target named is T3, Serine/threonine-protein kinase Nek2 (Homo sapiens) (UniProt P51955).
T3 sequence (whole entry): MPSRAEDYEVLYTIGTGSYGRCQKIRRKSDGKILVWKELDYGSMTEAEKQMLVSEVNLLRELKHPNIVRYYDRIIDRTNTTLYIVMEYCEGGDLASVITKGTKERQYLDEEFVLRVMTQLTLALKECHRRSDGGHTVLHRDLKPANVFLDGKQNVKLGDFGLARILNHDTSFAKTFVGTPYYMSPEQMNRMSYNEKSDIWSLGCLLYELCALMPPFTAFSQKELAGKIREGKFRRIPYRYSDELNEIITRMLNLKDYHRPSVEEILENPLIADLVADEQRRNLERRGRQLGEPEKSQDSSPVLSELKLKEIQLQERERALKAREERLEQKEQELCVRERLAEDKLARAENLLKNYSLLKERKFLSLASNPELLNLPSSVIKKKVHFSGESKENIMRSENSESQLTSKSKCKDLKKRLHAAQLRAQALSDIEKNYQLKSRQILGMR
The assay can be described thus: Inhibition of NEK2 at 0.1 uM; values are per cent of control.

For assay [4], the target named is Serine/threonine-protein kinase N2 (Homo sapiens) (UniProt Q16513). The assay can be described thus: Inhibition of PRK2 at 0.1 uM; values are per cent of control.
Chain of Serine/threonine-protein kinase N2 (Homo sapiens) (Q16513 whole entry, looked up): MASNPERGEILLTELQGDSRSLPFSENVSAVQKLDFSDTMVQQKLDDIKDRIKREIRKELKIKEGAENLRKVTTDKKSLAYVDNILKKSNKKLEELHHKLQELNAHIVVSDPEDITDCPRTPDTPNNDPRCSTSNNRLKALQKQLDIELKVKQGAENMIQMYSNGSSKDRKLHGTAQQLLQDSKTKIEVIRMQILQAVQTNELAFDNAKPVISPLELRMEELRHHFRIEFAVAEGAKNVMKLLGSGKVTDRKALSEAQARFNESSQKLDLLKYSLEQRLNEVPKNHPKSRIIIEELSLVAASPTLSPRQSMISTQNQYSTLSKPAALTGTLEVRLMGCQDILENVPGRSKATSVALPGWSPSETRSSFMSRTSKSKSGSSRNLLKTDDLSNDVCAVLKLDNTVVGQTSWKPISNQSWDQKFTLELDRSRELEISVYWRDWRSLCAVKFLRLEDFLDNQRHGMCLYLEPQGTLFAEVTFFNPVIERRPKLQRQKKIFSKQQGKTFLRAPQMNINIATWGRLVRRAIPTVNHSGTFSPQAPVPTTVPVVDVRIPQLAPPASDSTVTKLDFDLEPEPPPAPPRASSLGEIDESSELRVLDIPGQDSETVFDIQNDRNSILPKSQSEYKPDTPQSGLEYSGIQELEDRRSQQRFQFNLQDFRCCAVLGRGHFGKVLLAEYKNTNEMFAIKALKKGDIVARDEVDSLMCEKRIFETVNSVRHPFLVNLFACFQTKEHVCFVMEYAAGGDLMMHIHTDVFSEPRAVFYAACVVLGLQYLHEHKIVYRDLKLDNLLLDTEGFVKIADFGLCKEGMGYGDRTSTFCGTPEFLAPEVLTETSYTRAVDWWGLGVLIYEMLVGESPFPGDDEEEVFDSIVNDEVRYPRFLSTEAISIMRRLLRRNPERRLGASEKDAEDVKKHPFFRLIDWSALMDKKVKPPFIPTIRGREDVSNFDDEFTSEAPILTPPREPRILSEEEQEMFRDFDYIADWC
Assay [5] deals with Receptor-interacting serine/threonine-protein kinase 2 (Homo sapiens) (UniProt O43353). The assay can be described thus: Inhibition of RIPK2 at 0.1 uM; values are per cent of control.
Chain of Receptor-interacting serine/threonine-protein kinase 2 (Homo sapiens) (O43353 whole entry): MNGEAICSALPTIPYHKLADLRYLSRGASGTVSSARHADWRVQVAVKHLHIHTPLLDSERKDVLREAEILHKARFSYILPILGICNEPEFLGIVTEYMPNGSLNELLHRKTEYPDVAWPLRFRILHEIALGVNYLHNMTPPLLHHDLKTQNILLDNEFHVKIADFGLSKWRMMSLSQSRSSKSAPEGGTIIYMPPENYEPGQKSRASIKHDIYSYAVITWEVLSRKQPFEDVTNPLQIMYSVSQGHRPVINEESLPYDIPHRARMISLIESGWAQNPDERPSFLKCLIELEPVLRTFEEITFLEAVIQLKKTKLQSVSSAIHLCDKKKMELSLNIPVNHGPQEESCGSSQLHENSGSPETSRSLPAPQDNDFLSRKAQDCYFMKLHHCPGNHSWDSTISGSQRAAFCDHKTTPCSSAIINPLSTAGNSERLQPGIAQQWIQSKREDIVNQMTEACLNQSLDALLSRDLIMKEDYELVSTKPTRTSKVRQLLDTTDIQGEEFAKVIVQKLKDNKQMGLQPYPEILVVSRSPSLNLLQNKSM
Assay [6] concerns the target Protein kinase C alpha type (Homo sapiens) (UniProt P17252). The assay can be described thus: Inhibition of PKCalpha at 0.1 uM; values are per cent of control.
Assay [7] has as its target T4, Protein kinase C epsilon type (Homo sapiens) (UniProt Q02156).
T4 sequence (whole entry): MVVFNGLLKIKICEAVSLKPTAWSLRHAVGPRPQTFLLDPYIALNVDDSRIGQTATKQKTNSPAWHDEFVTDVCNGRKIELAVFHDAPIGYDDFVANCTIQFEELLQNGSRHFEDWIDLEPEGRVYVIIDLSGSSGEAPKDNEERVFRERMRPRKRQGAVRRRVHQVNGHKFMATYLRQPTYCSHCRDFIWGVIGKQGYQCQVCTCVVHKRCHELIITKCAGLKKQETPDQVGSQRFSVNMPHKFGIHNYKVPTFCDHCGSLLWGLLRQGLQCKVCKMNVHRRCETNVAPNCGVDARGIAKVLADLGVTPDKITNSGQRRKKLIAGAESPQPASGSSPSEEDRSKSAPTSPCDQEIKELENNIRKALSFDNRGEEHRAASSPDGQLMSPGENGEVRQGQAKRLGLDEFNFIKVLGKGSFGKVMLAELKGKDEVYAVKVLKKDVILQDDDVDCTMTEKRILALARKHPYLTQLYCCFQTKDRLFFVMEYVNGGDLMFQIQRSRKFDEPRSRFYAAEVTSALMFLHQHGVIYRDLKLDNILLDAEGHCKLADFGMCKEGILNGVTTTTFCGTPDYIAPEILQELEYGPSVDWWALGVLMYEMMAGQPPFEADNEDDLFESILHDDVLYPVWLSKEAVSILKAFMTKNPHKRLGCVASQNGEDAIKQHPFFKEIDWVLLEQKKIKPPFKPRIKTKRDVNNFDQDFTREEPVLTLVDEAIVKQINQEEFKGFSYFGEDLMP
As to the kind of experiment: Inhibition of PKCepsilon at 0.1 uM; values are per cent of control.

As a reminder, the residual activity is what remains of the control signal, in per cent. Turning to `Cc1ccc2cc(-c3n[nH]c4ccc(NC5CCNC5)cc34)[nH]c2c1` (centres undefined), the residual activity in assay [1] amounted to 57%; in assay [2], 18%; in assay [3] it was 79%; in assay [4], 93%; in assay [5], 87%; in assay [6] it was 85%. The compound also had a residual activity in assay [7] of 30%.
`Cc1ccc2cc(-c3n[nH]c4ccc(NC5CCN(Cc6ccccc6)CC5)cc34)[nH]c2c1`: the residual activity in assay [1] came out at 58%; in assay [2] it was 90%; in assay [3], 91%; in assay [4], 25%; in assay [5] it was 94%; in assay [6], 77%. In assay [7], this compound showed a residual activity of 86%.
